Data as given in paper PMC5951806, “Rapid labelling and covalent inhibition of intracellular native proteins using ligand-directed N-acyl-N-alkyl sulfonamide” (Nature Communications, 2018).

Legend:
[1] = target: Dolichyl-diphosphooligosaccharide--protein glycosyltransferase 48 kDa subunit (DDOST) (Homo sapiens, UniProt P39656); test: TMT LC-MSMS of 11-labelled proteins; type: cell-based
Source text: (§1) Supplement 41467_2018_4343_MOESM4_ESM.xlsx, sheet "Exp2" | column: Abundance Ratio: (11) / (11 with PU-H71); Abundance Ratio: (11) / (DMSO); Abundances (Grouped): 11; Abundances (Grouped): 11 with PU-H71

[2] = target: Dolichyl-diphosphooligosaccharide--protein glycosyltransferase subunit 1 (RPN1) (Homo sapiens, UniProt P04843); test: TMT LC-MSMS of 11-labelled proteins; type: cell-based
Source text: as §1

protein MAL2 (MAL2) = protein MAL2 (MAL2) (Homo sapiens, UniProt Q969L2); test: TMT LC-MSMS of 11-labelled proteins; type: cell-based
Source text: as §1

[3] = target: T1, Monocarboxylate transporter 4 (SLC16A3) (Homo sapiens, UniProt O15427); test: TMT LC-MSMS of 11-labelled proteins; type: cell-based
T1 sequence (O15427 1-465): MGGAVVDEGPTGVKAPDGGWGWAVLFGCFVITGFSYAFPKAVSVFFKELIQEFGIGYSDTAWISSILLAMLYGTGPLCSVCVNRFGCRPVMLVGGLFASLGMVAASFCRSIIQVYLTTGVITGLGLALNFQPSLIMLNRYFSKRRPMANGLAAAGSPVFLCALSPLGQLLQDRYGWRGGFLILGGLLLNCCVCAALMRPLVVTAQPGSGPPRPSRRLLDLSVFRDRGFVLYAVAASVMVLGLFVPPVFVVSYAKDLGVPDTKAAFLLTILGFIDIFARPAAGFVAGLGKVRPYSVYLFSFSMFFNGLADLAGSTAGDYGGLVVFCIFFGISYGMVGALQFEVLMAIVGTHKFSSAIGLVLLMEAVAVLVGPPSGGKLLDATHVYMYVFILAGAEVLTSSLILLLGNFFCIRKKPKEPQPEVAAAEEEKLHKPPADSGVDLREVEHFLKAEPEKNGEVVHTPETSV
Source text: as §1

[4] = target: Isoform 2 of Glucose-6-phosphate isomerase (GPI) (Homo sapiens, UniProt P06744); test: TMT LC-MSMS of 11-labelled proteins; type: cell-based
Source text: as §1

[5] = target: Hemoglobin subunit alpha (HBA2; HBA1) (Homo sapiens, UniProt P69905); test: TMT LC-MSMS of 11-labelled proteins; type: cell-based
Source text: as §1

[6] = test system: immunoglobulin gamma-1 heavy chain; test: TMT LC-MSMS of 11-labelled proteins; type: cell-based, Homo sapiens
Source text: Supplement 41467_2018_4343_MOESM4_ESM.xlsx, sheet "Exp3" | column: Abundance Ratio: (11) / (11 with PU-H71); Abundance Ratio: (11) / (DMSO); Abundances (Grouped): 11; Abundances (Grouped): 11 with PU-H71

endogenous Hsp90 = test: Chemical labelling of endogenous Hsp90 in SKBR3 cells (in-gel fluorescence); type: cell-based, human; details: 3 h

Dolichyl-diphosphooligosaccharide--protein glycosyltransferase 48 kDa subunit (DDOST), sequence (P39656 43-456): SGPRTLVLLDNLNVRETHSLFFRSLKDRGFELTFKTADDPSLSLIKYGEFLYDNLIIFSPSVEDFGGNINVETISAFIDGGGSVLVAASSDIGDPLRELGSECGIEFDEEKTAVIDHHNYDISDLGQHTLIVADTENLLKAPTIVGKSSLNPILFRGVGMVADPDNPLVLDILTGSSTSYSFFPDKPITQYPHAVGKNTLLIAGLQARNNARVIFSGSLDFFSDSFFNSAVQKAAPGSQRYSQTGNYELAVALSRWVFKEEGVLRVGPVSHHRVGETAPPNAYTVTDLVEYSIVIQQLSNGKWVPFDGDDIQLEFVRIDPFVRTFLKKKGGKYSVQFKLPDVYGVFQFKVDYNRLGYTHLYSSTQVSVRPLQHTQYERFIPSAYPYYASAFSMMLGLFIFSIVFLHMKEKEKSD
Dolichyl-diphosphooligosaccharide--protein glycosyltransferase 48 kDa subunit (DDOST), sequence (P04843 24-607 partner): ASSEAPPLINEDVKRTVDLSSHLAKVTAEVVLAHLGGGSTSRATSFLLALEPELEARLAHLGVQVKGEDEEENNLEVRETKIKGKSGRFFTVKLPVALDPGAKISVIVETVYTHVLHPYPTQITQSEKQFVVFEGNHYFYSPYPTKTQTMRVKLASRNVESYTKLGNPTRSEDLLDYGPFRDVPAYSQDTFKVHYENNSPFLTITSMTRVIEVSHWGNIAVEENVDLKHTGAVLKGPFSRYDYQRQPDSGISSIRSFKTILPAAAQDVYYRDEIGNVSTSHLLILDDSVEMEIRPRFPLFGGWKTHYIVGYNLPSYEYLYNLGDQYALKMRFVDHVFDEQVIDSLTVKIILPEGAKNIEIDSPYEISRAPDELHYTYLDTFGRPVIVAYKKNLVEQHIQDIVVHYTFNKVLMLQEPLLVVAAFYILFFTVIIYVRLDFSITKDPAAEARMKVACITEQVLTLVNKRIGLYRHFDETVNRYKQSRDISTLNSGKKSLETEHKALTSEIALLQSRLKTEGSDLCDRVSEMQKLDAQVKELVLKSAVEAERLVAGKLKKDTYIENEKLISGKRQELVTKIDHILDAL
Dolichyl-diphosphooligosaccharide--protein glycosyltransferase 48 kDa subunit (DDOST), sequence (P04844 23-631 partner): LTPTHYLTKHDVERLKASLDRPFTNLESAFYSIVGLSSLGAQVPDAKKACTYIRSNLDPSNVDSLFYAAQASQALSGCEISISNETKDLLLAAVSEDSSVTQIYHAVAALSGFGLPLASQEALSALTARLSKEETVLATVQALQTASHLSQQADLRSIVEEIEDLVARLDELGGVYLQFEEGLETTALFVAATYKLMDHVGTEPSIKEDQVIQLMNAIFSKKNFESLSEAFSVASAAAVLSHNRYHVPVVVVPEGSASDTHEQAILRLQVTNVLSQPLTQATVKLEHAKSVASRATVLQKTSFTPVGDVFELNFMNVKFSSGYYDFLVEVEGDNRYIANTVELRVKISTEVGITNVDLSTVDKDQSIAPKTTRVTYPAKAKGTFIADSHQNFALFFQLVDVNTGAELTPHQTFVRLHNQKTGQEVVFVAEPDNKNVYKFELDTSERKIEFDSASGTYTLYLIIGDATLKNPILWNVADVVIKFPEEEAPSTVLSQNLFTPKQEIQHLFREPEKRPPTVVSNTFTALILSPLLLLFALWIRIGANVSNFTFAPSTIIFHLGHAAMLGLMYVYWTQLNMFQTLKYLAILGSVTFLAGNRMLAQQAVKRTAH
Dolichyl-diphosphooligosaccharide--protein glycosyltransferase 48 kDa subunit (DDOST), sequence (P61803 whole entry partner): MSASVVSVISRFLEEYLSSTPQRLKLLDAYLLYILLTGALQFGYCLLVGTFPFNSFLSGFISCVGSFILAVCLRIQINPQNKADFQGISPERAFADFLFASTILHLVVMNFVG
Dolichyl-diphosphooligosaccharide--protein glycosyltransferase 48 kDa subunit (DDOST), sequence (P61165 whole entry partner): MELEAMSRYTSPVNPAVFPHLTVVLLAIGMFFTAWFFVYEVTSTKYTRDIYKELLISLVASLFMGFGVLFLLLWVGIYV
Dolichyl-diphosphooligosaccharide--protein glycosyltransferase 48 kDa subunit (DDOST), sequence (P0C6T2 whole entry partner): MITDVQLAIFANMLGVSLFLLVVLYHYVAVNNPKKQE
Hemoglobin subunit alpha (HBA2; HBA1), sequence (P69905 2-142 limits assumed): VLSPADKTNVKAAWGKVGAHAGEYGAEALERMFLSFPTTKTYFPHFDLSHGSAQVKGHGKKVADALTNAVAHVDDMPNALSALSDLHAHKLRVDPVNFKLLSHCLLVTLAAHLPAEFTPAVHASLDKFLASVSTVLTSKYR
Dolichyl-diphosphooligosaccharide--protein glycosyltransferase subunit 1 (RPN1), sequence (P04843 24-607): as the sequence (P04843 24-607 partner) above
Dolichyl-diphosphooligosaccharide--protein glycosyltransferase subunit 1 (RPN1), sequence (P39656 43-456 partner): as the sequence (P39656 43-456) above
Dolichyl-diphosphooligosaccharide--protein glycosyltransferase subunit 1 (RPN1), sequence (P04844 23-631 partner): as the sequence (P04844 23-631 partner) above
Dolichyl-diphosphooligosaccharide--protein glycosyltransferase subunit 1 (RPN1), sequence (P61803 whole entry partner): as the sequence (P61803 whole entry partner) above
Dolichyl-diphosphooligosaccharide--protein glycosyltransferase subunit 1 (RPN1), sequence (P61165 whole entry partner): as the sequence (P61165 whole entry partner) above
Dolichyl-diphosphooligosaccharide--protein glycosyltransferase subunit 1 (RPN1), sequence (P0C6T2 whole entry partner): as the sequence (P0C6T2 whole entry partner) above
protein MAL2 (MAL2), sequence (Q969L2 whole entry): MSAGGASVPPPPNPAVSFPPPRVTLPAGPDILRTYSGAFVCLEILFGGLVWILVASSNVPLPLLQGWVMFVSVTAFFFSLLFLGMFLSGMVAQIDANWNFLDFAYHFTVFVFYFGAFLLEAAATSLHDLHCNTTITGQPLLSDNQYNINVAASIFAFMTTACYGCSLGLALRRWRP

Abundance Ratio: (11) / (11 with PU-H71) ([1]; sheet Exp2): 0.942
Abundance Ratio: (11) / (DMSO) ([1]; sheet Exp2): 2.044
Abundances (Grouped): 11 ([1]; sheet Exp2): 37.4
Abundances (Grouped): 11 with PU-H71 ([1]; sheet Exp2, with PU-H71): 39.7
Abundance Ratio: (11) / (11 with PU-H71) ([2]; sheet Exp2): 0.909
Abundance Ratio: (11) / (DMSO) ([2]; sheet Exp2): 2.785
Abundances (Grouped): 11 ([2]; sheet Exp2): 47.9
Abundances (Grouped): 11 with PU-H71 ([2]; sheet Exp2, with PU-H71): 52.7
Abundance Ratio: (11) / (11 with PU-H71) (protein MAL2 (MAL2); sheet Exp2): 0.886
Abundance Ratio: (11) / (DMSO) (protein MAL2 (MAL2); sheet Exp2): 3.449
Abundances (Grouped): 11 (protein MAL2 (MAL2); sheet Exp2): 114.5
Abundances (Grouped): 11 with PU-H71 (protein MAL2 (MAL2); sheet Exp2, with PU-H71): 129.3
Abundance Ratio: (11) / (11 with PU-H71) ([3]; sheet Exp2): 0.892
Abundance Ratio: (11) / (DMSO) ([3]; sheet Exp2): 8.305
Abundances (Grouped): 11 ([3]; sheet Exp2): 225.9
Abundances (Grouped): 11 with PU-H71 ([3]; sheet Exp2, with PU-H71): 253.2
Abundance Ratio: (11) / (11 with PU-H71) ([4]; sheet Exp2): 0.768
Abundance Ratio: (11) / (DMSO) ([4]; sheet Exp2): 2.545
Abundances (Grouped): 11 ([4]; sheet Exp2): 34.1
Abundances (Grouped): 11 with PU-H71 ([4]; sheet Exp2, with PU-H71): 44.4
Abundance Ratio: (11) / (11 with PU-H71) ([5]; sheet Exp2): 0.752
Abundance Ratio: (11) / (DMSO) ([5]; sheet Exp2): 2.578
Abundances (Grouped): 11 ([5]; sheet Exp2): 76.3
Abundances (Grouped): 11 with PU-H71 ([5]; sheet Exp2, with PU-H71): 101.4
Structure (SMILES): CC(=O)Oc1ccc2c(c1)Oc1cc(OC(C)=O)ccc1C21OC(=O)c2cc(C(=O)NCCOCCOCCNC(=O)CCCC(=O)N(CC#N)S(=O)(=O)c3ccc(C(=O)NCCCn4c(Sc5cc6c(cc5I)OCO6)nc5c(N)ncnc54)cc3)ccc21 [compound 11]
Abundance Ratio: (11) / (11 with PU-H71) ([6]; Exp3): 0.809
Abundance Ratio: (11) / (DMSO) ([6]; Exp3): 0.806
Abundances (Grouped): 11 ([6]; Exp3): 6402
Abundances (Grouped): 11 with PU-H71 ([6]; Exp3, with PU-H71): 7910.4
unspecific reaction at high concentrations (endogenous Hsp90; 1–10 µM, 37 °C): No increase in unspecific
endogenous Hsp90 labelling (endogenous Hsp90; up to ~10 µM): labelled endogenous Hsp90 (both α and β isoforms)
